Measured values taken from patent publication EP0532097A1, “Piperazinyl(sulfon)amide derivatives of camphor as oxytocin antagonists” (MERCK & CO. INC., priority 1991, dated 1993).
Like-named read-outs stand apart in the source and are kept apart here. Values belong to the compound of their own block, whether it stands above or below them.

Target: T1, uterine OT receptors (Rattus norvegicus, UniProt P70536)
T1 construct: using a crude membrane preparation of uteri; from tissue; host or cells: uterus of DES-treated rats, crude membrane preparation
T1 sequence (P70536 1-388): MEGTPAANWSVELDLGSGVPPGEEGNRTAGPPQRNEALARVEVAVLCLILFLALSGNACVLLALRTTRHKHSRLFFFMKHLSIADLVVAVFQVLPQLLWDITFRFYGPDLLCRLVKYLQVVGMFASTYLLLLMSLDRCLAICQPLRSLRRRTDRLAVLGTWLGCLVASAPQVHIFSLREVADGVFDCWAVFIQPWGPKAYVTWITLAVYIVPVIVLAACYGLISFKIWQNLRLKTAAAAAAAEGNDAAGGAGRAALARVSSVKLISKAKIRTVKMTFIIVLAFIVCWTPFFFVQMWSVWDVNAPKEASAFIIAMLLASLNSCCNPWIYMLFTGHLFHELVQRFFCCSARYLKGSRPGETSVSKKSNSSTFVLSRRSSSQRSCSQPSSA
Assay: [³H]Oxytocin radioligand binding assay, crude membrane preparation of uteri from DES-treated rats
Conditions: for inhibition at 0.1 µM: read-out: inhibition at 100 nM; for inhibition at 1 µM: read-out: inhibition at 1,000 nM; for inhibition at 10 µM: read-out: inhibition at 10,000 nM

[1] = competition with 1 nM [³H]OT, 60 minutes, 22°C, concentration that inhibits 50% of OT, read-out: IC50

Procedure: The high affinity binding of [³H] Oxytocin (OT)([tyrosyl, 3,5-[³H]OT; 30-60 Ci/mmol; New England Nuclear. Boston, MA) to uterine OT receptors was based on an assay (Fuchs, A-R; Fuchs, F; Soloff, MS. 1985 J. Clin. Endocrinol. Metab. 60:37) using a crude membrane preparation of uteri taken from diethylstilbestrol dipropionate (DES)-treated (0.3 mg/kg, ip; 18-24) rats. Competition studies were conducted at equilibrium (60 minutes; 22°C) using 1 nM[³H]OT in the following assay buffer: 50 mM Tris-HCl, 5 mM MgCl₂, and 0.1% BSA, pH 7.4. Nonspecific binding (10% of the total binding) was determined using 1 mM unlabeled OT and the binding reaction was terminated by filtration through glass fiber filters using a cell harvester (model 7019, Skatron, Inc., Sterling, VA). IC₅₀ (the concentration of tested compound that inhibits 50% of OT) was reported, unless otherwise noted.

Compound: COC(=O)CCNCC(C)C1(O)CC2CCC1(CS(=O)(=O)N1CCN(c3ccccc3C)CC1)C2(C)C (stereo not drawn) [Example 10, 1-((7,7-Dimethyl-2-exo-hydroxy-2-endo-2-(1-(2-methoxycarbonylethyl)-amino)propyl-bicyclo(2.2.1)heptan-1-yl)methanesulfonyl)-4-(2-methylphenyl)piperazine]
inhibition at 0.1 µM: 48%

Compound: C=CC1(O)CC2CCC1(CS(=O)(=O)N1CCN(c3ccccc3C)CC1)C2(C)C (stereo not drawn) [Example 12, 1-((7,7-dimethyl-2-exo-hydroxy-2-endo-ethenyl-bicyclo(2.2.1)heptan-1-yl)methanesulfonyl)-4-(2-methylphenyl)piperazine]
inhibition at 0.1 µM: 23%

Compound: Cc1ccccc1N1CCN(S(=O)(=O)CC23CCC(CC2=CCN=[N+]=[N-])C3(C)C)CC1 (stereo not shown) [Example 15, 1-((7,7-dimethyl-2-(2-azido)ethylidine-bicyclo-(2.2.1)heptan-1-yl)methanesulfonyl)-4-(2-methyl-phenyl)piperazine]
inhibition at 1 µM: 44%

Compound: Cc1ccccc1N1CCN(S(=O)(=O)CC23CCC(CC2=CCN)C3(C)C)CC1 (stereo not shown) [Example 16, 1-((7,7-dimethyl-2-(2-amino)ethylidine-bicyclo-(2.2.1)heptan-1-yl)methanesulfonyl)-4-(2-methyl-phenyl)piperazine]
inhibition at 1 µM: 64%

Compound: Cc1ccccc1N1CCN(S(=O)(=O)CC23CCC(CC2=CCNC(=O)Cc2cnc[nH]2)C3(C)C)CC1 (stereo not shown) [Example 17, 1-((7,7-dimethyl-2-(2-(4(5)-imidazolylacetyl)amino)-ethylidine-bicyclo(2.2.1)heptan-1-yl)methane-sulfonyl)-4-(2-methylphenyl)piperazine]
inhibition at 0.1 µM: 36%

Compound: Cc1ccccc1N1CCN(S(=O)(=O)CC23CCC(CC24CO4)C3(C)C)CC1 (stereo not shown) [Example 18, 1-((7,7-Dimethyl-2-spiro-epoxy-bicyclo(2.2.1)heptan-1-yl)methane-sulfonyl)-4-(2-methylphenyl)piperazine]
inhibition at 1 µM: 75%

Compound: Cc1ccccc1N1CCN(S(=O)(=O)C[C@]23CC[C@H](C[C@]2(O)CNCC(C)C)C3(C)C)CC1 [Example 19, 1-((7,7-Dimethyl-2-exo-hydroxy-2-endo-isobutylamino-methyl-bicyclo(2.2.1)heptan-1-yl)methanesulfonyl)-4-(2-methylphenyl)piperazine]
inhibition at 1 µM: 31%

Compound: COC(=O)C1=CC2CCC1(CS(=O)(=O)N1CCN(c3ccccc3C)CC1)C2(C)C (stereo not shown) [Example 20, 1-((7,7-Dimethyl-2-methoxycarbonyl-bicyclo(2.2.1)hept-2-en-1-yl)methanesulfonyl)-4-(2-methylphenyl)-piperazine]
inhibition at 1 µM: 72%

Compound: Cc1ccccc1N1CCN(S(=O)(=O)CC23CCC(C=C2C(=O)O)C3(C)C)CC1 (stereo not shown) [Example 21, 1-((7,7-Dimethyl-2-carboxy-bicyclo(2.2.1)hept-2-en-1-yl)methanesulfonyl)-4-(2-methylphenyl)piperazine]
inhibition at 1 µM: 38%

Compound: Cc1ccccc1N1CCN(S(=O)(=O)CC23CCC(C=C2C(=O)NCCc2cnc[nH]2)C3(C)C)CC1 (stereo not shown) [Example 22, 1-((7,7-Dimethyl-2-(4-imidazolyl)ethylaminocarbonyl-bicyclo(2.2.1)hept-2-en-1-yl)methanesulfonyl)-4-(2-methylphenyl)piperazine]
inhibition at 1 µM: 78%

Compound: CCOC(=O)C(CC=C1CC2CCC1(CS(=O)(=O)N1CCN(c3ccccc3C)CC1)C2(C)C)(NC(C)=O)C(=O)OCC (stereo not shown) [Example 28, 1-((7,7-Dimethyl-2-(3-acetamido-3,3'-di(ethoxycarbonyl))propylidine-bicyclo(2.2.1)heptan-1-yl)methanesulfonyl)-4-(2-methylphenyl)piperazine]
inhibition at 0.1 µM: 35%

Compound: Cc1ccccc1N1CCN(S(=O)(=O)C[C@]23CC[C@H](C[C@@H]2NC(=O)[C@H](CCS(C)(=O)=O)NC(=O)Cc2c[nH]cn2)C3(C)C)CC1 [Example 37, 1-((7,7-Dimethyl-2-endo-(2s-(imidazol-4-ylacetyl-amino)-4-(methyl-sulfonyl)butyramido)-bicyclo(2.2.1)-heptan-1-yl)methanesulfonyl)-4-(2-methylphenyl)-piperazine]
IC50: 1.2 nM

More lines, now with the values ahead:

inhibition at 1,000 nM (at 1,000 nM, 1 µM): 78% inhibition at 1,000 nM
Compound: 1-((7,7-Dimethyl-2-(3-acetamido-3-carboxy)propylidine-bicyclo(2.2.1)-heptan-1-yl)methanesulfonyl)-4-(2-methylphenyl)piperazine [Example 29]

inhibition at 100 nM (at 100 nM): 37% inhibition at 100 nM
Compound: 1-((7,7-Dimethyl-2-exo-hydroxy-2-endo-2-(1-(4-pyridinyl)methylamino)-propyl-bicyclo(2.2.1)heptan-1-yl)methanesulfonyl)-4-(2-methylphenyl)-piperazine [Example 27]

IC50 [1]: 120 nM
Compound: COC(=O)[C@H]1C[C@H]2CC[C@]1(CS(=O)(=O)N1CCN(c3ccccc3C)CC1)C2(C)C [Example 23, 1-((7,7-Dimethyl-2-endo-methoxycarbonyl-bicyclo-(2.2.1)heptan-1-yl)methanesulfonyl)-4-(2-methyl-phenyl)piperazine]

IC50 [1]: 260 nM
Compound: Cc1ccccc1N1CCN(S(=O)(=O)C[C@]23CC[C@H](C[C@@H]2C(=O)O)C3(C)C)CC1 [Example 24, 1-((7,7-Dimethyl-2-endo-carboxy-bicyclo(2.2.1)heptan-1-yl)methane-sulfonyl)-4-(2-methylphenyl)piperazine]

inhibition at 0.1 µM: 34%
Compound: Cc1ccccc1N1CCN(S(=O)(=O)C[C@]23CC[C@H](C[C@@H]2C(=O)NCCc2cnc[nH]2)C3(C)C)CC1 [Example 25, 1-((7,7-Dimethyl-2-endo-(4-imidazolyl)ethylamino-carbonyl-bicyclo-(2.2.1)heptan-1-yl)methanesulfonyl)-4-(2-methylphenyl)piperazine]

inhibition at 10 µM: 16%
Compound: Cc1ccccc1N1CCN(S(=O)(=O)CC23CCC(CC2=O)C3(C)C)CC1=O (stereo not shown) [Example 30, 1-((7,7-Dimethyl-2-oxo-bicyclo(2.2.1)heptan-1-yl)methanesulfonyl)-4-(2-methylphenyl)-3-piperazinone]

inhibition at 10 µM: 5%
Compound: Cc1ccccc1N1CCN(S(=O)(=O)CC23CCC(CC2=O)C3(C)C)C(C)C1=O (stereo not shown) [Example 31, 1-((7,7-Dimethyl-2-oxo-bicyclo(2.2.1)heptan-1-yl)methanesulfonyl)-4-(2-methylphenyl)-2-methyl-3-piperazinone]

inhibition at 1 µM: 37%
Compound: Cc1ccccc1N1CCN(S(=O)(=O)C[C@]23CC[C@H](C[C@H]2O)C3(C)C)C(C)C1 (stereo partly drawn) [Example 32, 1-((7,7-Dimethyl-2-exo-hydroxy-bicyclo(2.2.1)heptan-1-yl)methane-sulfonyl)-4-(2-methylphenyl)-2-methyl-piperazine]

IC50 [1]: 460 nM
Compound: Cc1ccccc1N1CCN(S(=O)(=O)CC23CCC(CC2=NO)C3(C)C)CC1 (stereo not shown) [Example 33, 1-((7,7-Dimethyl-2-oximino-bicyclo(2.2.1)heptan-1-yl)methanesulfonyl)-4-(2-methylphenyl)-piperazine]

inhibition at 0.1 µM: 91%
Compound: Cc1ccccc1N1CCN(S(=O)(=O)C[C@]23CC[C@H](C[C@@H]2NC(=O)[C@H](CCS(C)(=O)=O)NC(=O)OC(C)(C)C)C3(C)C)CC1 [Example 35, 1-((7,7-Dimethyl-2-endo-(2S-(tert-butyloxycarbonyl-amino)-4-(methyl-sulfonyl)-butyramido)-bicyclo(2.2.1)-heptan-1-yl)methanesulfonyl)-4-(2-methylphenyl)-piperazine]

IC50 [1]: 7.7 nM
Compound: Cc1ccccc1N1CCN(S(=O)(=O)C[C@]23CC[C@H](C[C@@H]2NC(=O)[C@@H](N)CCS(C)(=O)=O)C3(C)C)CC1 [Example 36, 1-((7,7-Dimethyl-2-endo-(2S-amino-4-(methylsulfonyl)-butyramido)-bicyclo(2.2.1)heptan-1-yl)methanesulfonyl)-4-(2-methylphenyl)piperazine]

IC50 [1]: 5.4 nM
Compound: Cc1ccccc1N1CCN(S(=O)(=O)C[C@]23CC[C@H](C[C@@H]2NC(=O)[C@H](CCS(C)(=O)=O)N(C)C)C3(C)C)CC1 [Example 38, 1-((7,7-Dimethyl-2-endo-(2s-(dimethylamino)-4-(methylsulfonyl)butyramido)-bicyclo(2.2.1)heptan-1-yl)methanesulfonyl)-4-(2-methyl-phenyl)piperazine]

inhibition at 1 µM: 54%
Compound: Cc1ccccc1N1CCN(S(=O)(=O)C[C@]23CC[C@H](C[C@@H]2NC(=O)OCc2ccccc2)C3(C)C)CC1 [Example 39, 1-((7,7-Dimethyl-2-endo-benzyloxycarbonylamino-bicyclo(2.2.1)heptan-1-yl)methanesulfonyl)-4-(2-methyl-phenyl)piperazine]

inhibition at 1 µM: 35%
Compound: Cc1ccccc1N1CCN(S(=O)(=O)C[C@]23CC[C@H](C[C@@H]2N(C)C(=O)OCc2ccccc2)C3(C)C)CC1 [Example 40, 1-((7,7-Dimethyl-2-endo-methyl(benzyloxy-carbonyl)amino-bicyclo(2.2.1)-heptan-1-yl)methanesulfonyl)4-(2-methylphenyl)piperazine]

IC50 [1]: 6.3 nM
Compound: Cc1ccccc1N1CCN(S(=O)(=O)C[C@]23CC[C@H](C[C@@H]2N(C)C(=O)[C@@H](N)CCS(C)(=O)=O)C3(C)C)CC1 [Example 41, 1-((7,7-dimethyl-2-endo-methyl(2S-amino-4-(methylsulfonyl)butanoyl)amino-bicyclo(2.2.1)heptan-1-yl)methanesulfonyl)-4-(2-methylphenyl)-piperazine]

IC50 [1]: 9.2 nM
Compound: Cc1ccccc1N1CCN(S(=O)(=O)C[C@]23CC[C@H](C[C@@H]2N(C)C(=O)[C@H](CCS(C)(=O)=O)N(C)C)C3(C)C)CC1 [Example 42, 1-((7,7-Dimethyl-2-endo-methyl(2s-dimethylamino-4-(methylsulfonyl)-butanoyl)amino-bicyclo(2.2.1)heptan-1-yl)methanesulfonyl)-4-(2-methylphenyl)-piperazine]
